Values after ≈ are worked out from the molar mass of the structure shown. Where two headings read alike, the source gives them in different places.
Tests used:
P. aeruginosa = test: MIC by serial two-fold agar dilution (Mueller-Hinton agar), P. aeruginosa, primary screening; format: cell-based
Method: (§1) Minimum inhibitory concentrations (MIC) of BB-S520 were determined by serial two-fold agar dilution method using Steers' apparatus on Meuller-Hinton agar plate against 31 test organisms for the primary screening and also against 61 strains of Pseudomonas aeruginosa for the secondary evaluation. The results are shown in Table 1 and Table 2 along with those of BB-S514 and sulbenicillin.
(§2) Minimum inhibitory concentrations (MIC) of cephalosporins in the present study were determined by serial two-fold agar dilution method using Steers' apparatus on Mueller-Hinton agar plate against 31 test organisms for the primary screening and also against 61 strains of Pseudomonas aeruginosa for the secondary evaluation.

[1] = tested on: Gram-negative (19 strains); test: Mean % relative activity (MIC) vs sulbenicillin, Gram-negative (19 strains); format: cell-based; settings: for Mean % Relative Activity (Sulbenicillin = 100%): Gram-negative (19 strains), from geometric means of MICs in Table 1; for Mean % Relative Activity (SPBC = 100%): G (-) (19 strains)
Method: as §1, §2

P. mirabilis = test: MIC by serial two-fold agar dilution (Mueller-Hinton agar), P. mirabilis; format: cell-based
Method: as §1, §2

S. marcescens = test: MIC by serial two-fold agar dilution (Mueller-Hinton agar), S. marcescens; format: cell-based
Method: as §1, §2

Klebsiella sp. = test: MIC by serial two-fold agar dilution (Mueller-Hinton agar), Klebsiella sp.; format: cell-based
Method: as §1, §2

[2] = tested on: Gram-positive (6 strains); test: Mean % relative activity (MIC) vs sulbenicillin, Gram-positive (6 strains); format: cell-based; settings: for Mean % Relative Activity (Sulbenicillin = 100%): Gram-positive (6 strains), from geometric means of MICs in Table 1; for Mean % Relative Activity (SPBC = 100%): G (+) (6 strains)
Method: as §1, §2

P. morganii = test: MIC by serial two-fold agar dilution (Mueller-Hinton agar), P. morganii; format: cell-based
Method: as §1, §2

[3] = Mouse blood levels after subcutaneous injection; format: in vivo; settings: sc
From the text: |Mouse Blood Levels | Blood Levels in Mcg./Ml. at | Indicated Hours After Subcu- |Dose in taneous Injection

Pseudomonas sp. = test: MIC by serial two-fold agar dilution (Mueller-Hinton agar), Pseudomonas sp.; format: cell-based; settings: Pseudomonas sp. A20358, Table 6
Method: as §2

[4] = Pseudomonas aeruginosa, P. aeruginosa (1st line), Table 1, read-out: MIC
[5] = Pseudomonas aeruginosa, P. aeruginosa (2nd line), Table 1, read-out: MIC
[6] = Pseudomonas aeruginosa, P. aeruginosa (3rd line), Table 1, read-out: MIC
[7] = Pseudomonas aeruginosa, P. aeruginosa (4th line), Table 1, read-out: MIC
[8] = Pseudomonas aeruginosa, P. aeruginosa (5th line), Table 1, read-out: MIC
[9] = Pseudomonas aeruginosa, P. aeruginosa (6th line), Table 1, read-out: MIC
[10] = Proteus mirabilis, P. mirabilis, Table 1, read-out: MIC
[11] = Serratia marcescens, S. marcescens, Table 1, read-out: MIC
[12] = Klebsiella sp., Table 1, read-out: MIC
[13] = Morganella morganii, P. morganii, Table 1, read-out: MIC
[14] = Pseudomonas aeruginosa, P. aeruginosa A9843, Table 6, read-out: MIC
[15] = Pseudomonas aeruginosa, P. aeruginosa A9930, Table 6, read-out: MIC
[16] = Pseudomonas aeruginosa, P. aeruginosa A20717, Table 6, read-out: MIC

Structure (SMILES) | MIC (P. aeruginosa; [4]) [µg/mL] | MIC (P. aeruginosa; [5]) [µg/mL] | MIC (P. aeruginosa; [6]) [µg/mL] | MIC (P. aeruginosa; [7]) [µg/mL] | MIC (P. aeruginosa; [8]) [µg/mL] | MIC (P. aeruginosa; [9]) [µg/mL] | Mean % Relative Activity (Sulbenicillin = 100%) [1] [%] | MIC (P. mirabilis; [10]) [µg/mL] | MIC (S. marcescens; [11]) [µg/mL] | MIC (Klebsiella sp.; [12]) [µg/mL] | Mean % Relative Activity (Sulbenicillin = 100%) [2] [%] | MIC (P. morganii; [13]) [µg/mL] | MIC (P. aeruginosa; [14]) [µg/mL] | MIC (P. aeruginosa; [15]) [µg/mL] | MIC (P. aeruginosa; [16]) [µg/mL] | MIC (Pseudomonas sp.) [µg/mL] | also measured
CC(=O)OCC1=C(C(=O)O)N2C(=O)C(NC(=O)C(NC(=O)c3cnc4cccnc4c3O)c3ccccc3)C2SC1 (centres unmarked) [BB-S514] | 3.1 (≈ 5.37 µM) | 3.1 (≈ 5.37 µM) | 6.3 (≈ 10.9 µM) | 25 (≈ 43.3 µM) | 6.3 (≈ 10.9 µM) | 3.1 (≈ 5.37 µM) | 96 | 0.8 (≈ 1.39 µM) | > 100 | 12.5 (≈ 21.6 µM) | 71 | > 100 | – | – | – | – | –
CC1(C)S[C@@H]2[C@H](NC(=O)C(c3ccccc3)S(=O)(=O)O)C(=O)N2[C@H]1C(=O)O (some centres unmarked) [Sulbenicillin, sulbenicillin] | – | 25 (≈ 60.3 µM) | 25 (≈ 60.3 µM) | 100 (≈ 241 µM) | – | 3.1 (≈ 7.48 µM) | – | 0.8 (≈ 1.93 µM) | 6.3 (≈ 15.2 µM) | – | – | > 100 | 25 (≈ 60.3 µM) | 25 (≈ 60.3 µM) | 100 (≈ 241 µM) | 3.1 (≈ 7.48 µM) | MIC (P. aeruginosa; P. aeruginosa (5th line), Table 1): 12.5 Mcg./Ml.; MIC (P. aeruginosa; P. aeruginosa A15150, Table 6): 12.5 µg/mL (≈ 30.2 µM); MIC (P. aeruginosa; P. aeruginosa A20229, Table 6): 12.5 µg/mL (≈ 30.2 µM); MIC (P. aeruginosa; Pseudomonas aeruginosa): 12.5 µg/mL (≈ 30.2 µM); concentration at 0.25 h ([3]; blood, 20 mg/kg, subcutaneous, 20 Mgm./Kg., 0.25 hours, read-out: Blood Levels): 9800 ng/mL; concentration at 0.5 h ([3]; blood, 20 mg/kg, subcutaneous, 20 Mgm./Kg., 0.5 hours, read-out: Blood Levels): 7500 ng/mL; concentration at 1 h ([3]; blood, 20 mg/kg, subcutaneous, 20 Mgm./Kg., 1.0 hours, read-out: Blood Levels): 1200 ng/mL; concentration at 0.25 h ([3]; blood, 40 mg/kg, subcutaneous, 40 Mgm./Kg., 0.25 hours, read-out: Blood Levels): 22000 ng/mL; concentration at 0.5 h ([3]; blood, 40 mg/kg, subcutaneous, 40 Mgm./Kg., 0.5 hours, read-out: Blood Levels): 14000 ng/mL; concentration at 1 h ([3]; blood, 40 mg/kg, subcutaneous, 40 Mgm./Kg., 1.0 hours, read-out: Blood Levels): 5000 ng/mL; concentration at 2 h ([3]; blood, 40 mg/kg, subcutaneous, 40 Mgm./Kg., 2.0 hours, read-out: Blood Levels): < 1000 ng/mL; MIC (P. mirabilis; P. mirabilis A9900, Table 6): 0.8 µg/mL (≈ 1.93 µM); MIC (S. marcescens; S. marcescens A20019, Table 6): 6.3 µg/mL (≈ 15.2 µM); MIC (Klebsiella sp.; Klebsiella): 12.5 µg/mL (≈ 30.2 µM); MIC (Klebsiella sp.; Klebsiella sp. A20452, Table 6): 12.5 µg/mL (≈ 30.2 µM); MIC (P. morganii; P. morganii A9553, Table 6): > 100 µg/mL
NC(=O)OCC1=C(C(=O)O)N2C(=O)C(NC(=O)[C@H](NC(=O)c3cnc4cccnc4c3O)c3ccc(O)cc3)C2SC1 (single isomer, unassigned) [BB-S530, Sodium 7-[D-(-)-α-(4-hydroxy-1,5-naphthyridine-3-carboxamido)-α-(p-hydroxyphenyl)acetamido]-3-carbamoyloxymethyl-3-cephem-4-carboxylate] | – | – | – | – | – | – | – | – | – | – | – | – | 1.6 | 0.8 | 3.1 | 0.4 | MIC (P. aeruginosa; Pseudomonas aeruginosa, P. aeruginosa A15150, Table 6, read-out: MIC): 1.6 µg/mL; MIC (P. aeruginosa; Pseudomonas aeruginosa, P. aeruginosa A20229, Table 6, read-out: MIC): 1.6 µg/mL; Mean % Relative Activity (SPBC = 100%) ([1]; Table 5): 108%; MIC (P. mirabilis; Proteus mirabilis, P. mirabilis A9900, Table 6, read-out: MIC): 6.3 µg/mL; MIC (S. marcescens; Serratia marcescens, S. marcescens A20019, Table 6, read-out: MIC): > 100 µg/mL; MIC (Klebsiella sp.; Klebsiella sp. A20452, Table 6, read-out: MIC): 1.6 µg/mL; Mean % Relative Activity (SPBC = 100%) ([2]; Table 5): 141%; MIC (P. morganii; Morganella morganii, P. morganii A9553, Table 6, read-out: MIC): > 100 µg/mL
NC(=O)OCC1=C(C(=O)O)N2C(=O)C(NC(=O)[C@H](NC(=O)c3cnc4cccnc4c3O)c3ccccc3)[C@H]2SC1 (stereo partly drawn) [BB-S520, Sodium 7-[D-α-(4-hydroxy-1,5-naphthyridine-3-carboxamido)-α-phenylacetamido]-3-carbamoyloxymethyl-3-cephem-4-carboxylate] | 1.6 | 3.1 | 3.1 | 12.5 | 1.6 | 1.6 | 179 | 0.4 | > 100 | 3.1 | 200 | > 100 | – | – | – | – | Mean % Relative Activity (SPBC = 100%) ([1]; lot 1, Table 5): 179%; Mean % Relative Activity (SPBC = 100%) ([1]; lot 2, Table 5): 108%; concentration at 0.25 h ([3]; in vivo, 20 mg/kg): 13000 ng/mL; concentration at 0.5 h ([3]; in vivo, 20 mg/kg): 9000 ng/mL; concentration at 1 h ([3]; in vivo, 20 mg/kg): 3700 ng/mL; concentration at 0.25 h ([3]; in vivo, 40 mg/kg): 25000 ng/mL; concentration at 0.5 h ([3]; in vivo, 40 mg/kg): 20000 ng/mL; concentration at 1 h ([3]; in vivo, 40 mg/kg): 7000 ng/mL; concentration at 2 h ([3]; in vivo, 40 mg/kg): 1000 ng/mL; Mean % Relative Activity (SPBC = 100%) ([2]; lot 1, Table 5): 200%; Mean % Relative Activity (SPBC = 100%) ([2]; lot 2, Table 5): 141%
